According to patent US20180298344A1, “Realistic Humanized Model of Disease Matrix Environment for Evaluation of Therapeutic Reversal or Cell Fate” (Yale University, priority 2017, published 2018):

Experiments:
[1] = system: human microvascular pericytes (PC); experiment: Short term (7 day) myofibroblast differentiation of PC on low, medium, high stiffness hydrogels with TGF-β1 or bleomycin activation; assay type: cell-based; conditions: 7 days
Procedure: (§1) Human microvascular PC were isolated from a readily available and nearly inexhaustible source, human placental tissue, by microvascular segment explant outgrowth (Sava et al., Microcirculation, 2015, 22:54-67; Ayres-Sander et al., PLoS One, 2013, 8:e60025; Lauridsen et al., FASEB, 2014, 28:1166-1180; Maier et al., Microcirculation, 2010, 17:367-380). Human placental tissue was segmented, digested with collagenase, and the resulting cells were cultured in M199 (Gibco, Grand Island, NY, USA) medium supplemented with 20% FBS (Hyclone Laboratories, Logan, Utah, USA), and 1% penicillin-streptomycin (Gibco). Isolated pericytes were screened by flow cytometry against NG2 (H-300, Santa Cruz Biotechnology), CD90 (K-15, Santa Cruz), CD146 (P1H12, Biolegend, San Diego, Calif., USA), PDGFR-β (18A2, Santa Cruz), α-SMA (1A4, Santa Cruz), SMMHC (N-16, Santa Cruz), CD31 (C20, Santa Cruz), CD34 (581, Sigma) and CD45 (MEM-28, Sigma). As negative control, PC were incubated with isotype matched IgG. Samples were run on a Stratedigm S1000EXi Flow Cytometer (Stratedigm, San Jose, Calif. USA) and analyzed with FlowJo software (Tree Star, Ashland, Oreg., USA).
(§2) Polyacrylamide hydrogels were prepared as previously described (Tse and Engler, Current protocols in cell biology, editorial board, Juan S. Bonifacino et al, 2010, Chapter 10, Unit 10-16). Briefly, amino-silanated coverslips were prepared by treatment with 0.1M NaOH, followed by 3-aminopropyltriethoxysilane (Sigma), and crosslinked with glutaraldehyde. Chloro-silanated coverslips were treated with dichlorodimethylsilane (Sigma). Polyacrylamide solutions of varying stiffness were prepared by altering the concentrations of acrylamide (Bio-Rad, Hercules, Calif., USA) and bis-acrylamide (Bio-Rad). Ammonium persulfate (Sigma) and tetramethylethylenediamine (Bio-Rad) were used as cross-linkers. The solution was placed between the chloro-silanated and amino-silanated coverslips and cross-linked under ambient lighting for 30 minutes, after which the amino-silanated slide, containing the hydrogel, was hydrated in PBS. The ECM components were chemically conjugated to the polyacrylamide hydrogel using the naturally occurring amine residues on the proteins. Sulfa-SANPAH (Thermo Fisher, Grand Island, N.Y., USA) was added in 50 mM 4-(2-hydroxyethyl)-1-piperazineethanesulfonic acid buffer (Sigma) and the hydrogels were placed under UV light (365 nm, 10 mW/cm^2) for 15 minutes, and incubated overnight with either 0.5 mg/mL solubilized healthy or IPF human lung ECM, or isolated ECM proteins (0.1 mg/mL human plasma fibronectin (Millipore, Billerica, Mass., USA) and 0.1 mg/mL collagen I (Sigma). Validation of protein conjugation was performed by tagging ECM with NHS-Fluorescein (5/6-carboxyfluorescein succinimidyl ester), dialyzing overnight, and rinsed extensively (Syed et al., J Vis, Exp, 2015, 97).
For short term (7 day) differentiation studies, PC (passage 3-7) were seeded on healthy or IPF lung tissue slices, polyacrylamide hydrogels, or 25 mm glass coverslips (VWR) at 100×10^3 cells per sample and activated with control media (non-activated), or 1 ng/mL TGF-β1 (PeproTech, Rocky Hill, N.J., USA) for 7 days (18, 19). For bleomycin activation, the cells were activated with 1 μg/mL bleomycin sulfate (Cayman Chemical, Ann Arbor, Mich.) for 1 day and the media was replaced with non-activated media for the remaining 6 days (Sava et al., Microcirculation, 2015, 22:54-67; Sterling et al., J Bio Chem, 1983, 258:14438-14444). TGF-β1 and bleomycin concentrations were based on reports consistent with activation of fibroblasts (Sava et al., Microcirculation, 2015, 22:54-67; Maroni and Davis, Bio Reprod, 2012, 87:127). Treatment with CCG-1423 (Sigma) was performed at day 0 for the full 7 days, and labeled as early treatment, or at day 7 and performed for 7 days, and labeled as late treatment. […]

fibrosis in mouse models = conditions: in vivo mouse models; cited from earlier work
[2] = system: human microvascular pericytes (PC); experiment: PC on high stiffness polyacrylamide hydrogels treated with CCG-1423; α-SMA by flow cytometry, F-Actin staining; assay type: cell-based; conditions: for detectable quantities of α-SMA: high-stiffness hydrogels, versus naive PC; for detectable quantities of α-SMA / decrease in expression of α-SMA: flow cytometry; for decrease in expression of α-SMA: 1.0 nM
Procedure: as §1, §2
For short term (7 day) differentiation studies, PC (passage 3-7) were seeded on healthy or IPF lung tissue slices, polyacrylamide hydrogels, or 25 mm glass coverslips (VWR) at 100×10^3 cells per sample and activated with control media (non-activated), or 1 ng/mL TGF-β1 (PeproTech, Rocky Hill, N.J., USA) for 7 days (18, 19). For bleomycin activation, the cells were activated with 1 μg/mL bleomycin sulfate (Cayman Chemical, Ann Arbor, Mich.) for 1 day and the media was replaced with non-activated media for the remaining 6 days (Sava et al., Microcirculation, 2015, 22:54-67; Sterling et al., J Bio Chem, 1983, 258:14438-14444). […]

[3] = system: idiopathic pulmonary fibrosis patients; conditions: IPF patients; cited from earlier work
[4] = low, medium, high stiffness hydrogels with fibronectin and collagen I, TGF-β1 1 ng/mL 7 days or bleomycin 1 μg/mL 1 day, flow cytometry

Q: What does the source list for bleomycin sulfate?
A: vimentin expression compared to non-activated PC on substrates of the same stiffness [1, 4]: significantly increased; α-SMA expression compared to non-activated PC on substrates of the same stiffness [1, 4]: significantly increased; cell area and elongation (aspect ratio) ([1]; medium and high stiffness substrates): largest area and elongation

Q: Which results are given for `CC(ONC(=O)c1cc(C(F)(F)F)cc(C(F)(F)F)c1)C(=O)Nc1ccc(Cl)cc1` (stereo not shown) [CCG-1423]?
A: prevention of fibrosis (fibrosis in mouse models): effective in preventing fibrosis; detectable quantities of α-SMA ([2]; CCG-1423 treatment at day 0 of PC culture, P<0.001): significantly reduced; detectable quantities of α-SMA ([2]; CCG-1423 treatment at day 7 of PC culture, P=0.039): significantly reduced; cell F-Actin architecture ([2]; F-Actin staining, high stiffness hydrogel): did not alter; decrease in expression of α-SMA ([2]; early time-point (day 0) treatment for 7 days, high stiffness hydrogel): 38.2±4.2%; decrease in expression of α-SMA ([2]; late time point (day 7) treatment for additional 7 days, high stiffness hydrogel): 20.4±8.0%

Q: With `Cc1ccc(=O)n(-c2ccccc2)c1` [pirfenidone] as the compound, how does the “decline in forced vital capacity” value [3] read?
A: The value was “reducing the decline in forced vital capacity”.
